Measurements published in ChEMBL document CHEMBL1136247, “Alpha-keto amides as inhibitors of histone deacetylase” (Bioorg Med Chem Lett, 2003).

Tests used:
HT-1080 = experiment: Compound was tested for inhibition of proliferation of HT1080 cells; format: functional, cell-based; conditions: Homo sapiens
[1] = target: Histone deacetylase (HDAC1 and HDAC2) (Homo sapiens, UniProt Q13547+Q92769); experiment: Inhibitory activity against mixture of histone deacetylase 1 (HDAC1) and histone deacetylase 2 (HDAC2) from nuclear extraction of K562 erythroleukemia cells.
MDA-MB-435 = experiment: Compound was tested for inhibition of proliferation of MDA-435 cells; format: functional, cell-based; conditions: Homo sapiens

IC50 (HT-1080) [nM] | IC50 [1] [nM] | IC50 (MDA-MB-435) [µM] | Compound
2900 | 9.5 | 4 | CNC(=O)C(=O)CCCCCCC(=O)Nc1cnc2ccccc2c1
 | 853 |  | CNC(=O)C(=O)CCCCCO/N=C\c1ccc(-c2ccccc2)cc1
 | 338 |  | CNC(=O)C(=O)CCCCCCC(=O)Nc1ccccc1
 | 3.7 |  | CNC(=O)C(=O)CCCCCCC(=O)Nc1cccc(-c2ccccc2)c1
 | 143 |  | CNC(=O)C(=O)CCCCCCS(=O)(=O)c1ccc(-c2ccccc2)cc1
120 | 3.1 | 0.16 | CNC(=O)C(=O)CCCCCCC(=O)Nc1nc(-c2ccc(CCN(C)C)cc2)cs1
670 |  | 2 | CNC(=O)C(=O)CCCCCCC(=O)Nc1nc(-c2ccncc2)cs1
 | 241 |  | CNC(=O)C(=O)CCCCCCNS(=O)(=O)c1ccc(-c2ccccc2)cc1
3400 | 18 | 4.5 | CNC(=O)C(=O)CCCCCCC(=O)Nc1ccc2cc[nH]c2c1
 | 526 |  | CNC(=O)C(=O)CCCCCCSc1ccc(-c2ccccc2)cc1
 | > 50 |  | O=C(O)CNC(=O)C(=O)CCCCCCOc1ccc(-c2ccccc2)cc1
 | > 50 |  | NC(=O)C(=O)CCCCCCOc1ccc(-c2ccccc2)cc1
 | > 5 |  | CN(C)C(=O)C(=O)CCCCCCOc1ccc(-c2ccccc2)cc1
 | 3.7 |  | O=C(O)C(=O)CCCCCCOc1ccc(-c2ccccc2)cc1
 | > 50 |  | CN(C)CCNC(=O)C(=O)CCCCCCOc1ccc(-c2ccccc2)cc1
 | 21 |  | CNC(=O)C(=O)CCCCCCNC(=O)c1cccc(-c2ccccc2)c1
 | 0.082 |  | COC(=O)C(=O)CCCCCOc1ccc(-c2ccccc2)cc1
35000 | 1041 | 39 | CNC(=O)C(=O)CCCCCCC(=O)Nc1cccc(Oc2ccccc2)c1
2700 | 9.1 | 5.8 | CNC(=O)C(=O)CCCCCCC(=O)Nc1nc(-c2ccc(OC)cc2)cs1
 | > 10000 |  | CNC(=O)C(=O)COCCCCOc1ccc(-c2ccccc2)cc1
 | > 1000 |  | CNC(=O)C(=O)C#CCCCCOc1ccc(-c2ccccc2)cc1
1200 | 11 | 3.1 | CNC(=O)C(=O)CCCCCCC(=O)Nc1nc(-c2ccccc2)cs1
 | 0.109 |  | COC(=O)C(=O)CCCCCCCOc1ccc(-c2ccccc2)cc1
 | 0.062 |  | COC(=O)C(=O)CCCCCCOc1ccc(-c2ccccc2)cc1
 | 201 |  | CNC(=O)C(=O)CCCCCCC(=O)Nc1ccc(-c2ccccc2)cc1

Compound | IC50 (HT-1080) [nM] | IC50 [1] [nM] | IC50 (MDA-MB-435) [µM]
CNC(=O)C(=O)CCCCCCC(=O)Nc1nc2ccccc2s1 | 13000 | 133 | 14
CNC(=O)C(=O)CCCCCCC(=O)Nc1nc(-c2ccc3c(c2)CCCC3)cs1 | > 50000 | 1.4 | > 50
CNC(=O)C(=O)CCCCCCOc1ccc(-c2ccccc2)cc1 |  | 0.11 | 
CCNC(=O)C(=O)CCCCCCOc1ccc(-c2ccccc2)cc1 |  | 4.9 | 
CNC(=O)C(=O)CCCCCCC(=O)Nc1ccc2ccccc2c1 | 17000 | 9.4 | 22
